Values joined by “and” are separate entries in the source; they are usually repeats but may differ in a detail not shown here. Equal values may be shown once.
Assays:
[1] = test system: patients with HER2/neu+ breast cancer; conditions: clinical vaccines in HER2/neu+ breast cancer; cited from earlier work
[2] = test system: CD8 T lymphocytes; experiment: HLA-A2:Ig dimer staining with control peptide-loaded dimers; assay type: cell-based, human; conditions: almost 2000 peripheral blood samples from about 200-300 patients

Substance | safety and stimulation of antigen-specific immunity [1] | background binding value of negative control dimers [2]
IISAVVGIL [GP2] | safe and effective in stimulating antigen-specific immunity | –
NH2-RIAWARTEL-COOH (H-RIAWARTEL-OH) [E37] | – | 03% and 0.25-0.34%
